Experimental data: patent US8269010B2, “3-amino-pyridine derivatives for the treatment of metabolic disorders” (Piramal Healthcare Limited, priority 2006, dated 2012)
“And” between values parts separate entries of the source, which are not always exact repeats. Identical values can stand only once.

Legend:
[1] = tested on: insulin resistant adipocytes (3T3 L1); assay: In vitro model exhibiting insulin resistance (IR assay): 14C-2-deoxyglucose uptake; assay type: cell-based; conditions: glucose uptake; for fold induction at 10 µM: Mus musculus, dexamethasone-induced insulin resistant 3T3 L1 adipocytes, test compound 10 μM/mL, vehicle = 1.0, cut off 1.50 fold, read-out: Fold activity (fold activity over vehicle); for % of Rosiglitazone (comparison with Rosiglitazone): insulin resistant 3T3 L1 adipocytes, test compound 10 μM vs Rosiglitazone 0.1 μM
Method: The assay was designed as in the reference, British Journal of Pharmacology, 130, 351-58, 2000, the disclosure of which is incorporated by reference for the teaching of the assay. The solution of test compound (10 μM/mL) was prepared in DMSO. […] Differentiation into adipocytes was induced by the known methods as described below. (See, also, J. Biol. […] 3T3 L1 fibroblasts were seeded in 24- or 6-well plates at a density of 0.5−2×10^4 cells/well and were allowed to reach maximal confluency. The confluent fibroblasts were exposed to culture medium for 2 days. […] The mature adipocytes were exposed to dexamethasone, 100 nM added in ethanol, in culture medium and incubated for 2 days. […] The test compound was also present during this period. After 3-4 hours, the medium was aspirated and replaced with Kreb's Ringer phosphate (KRP) buffer at pH 7.4 and with human/porcine insulin, 200 nM. The cells were incubated for 30 minutes at 37° C. […] After exactly 5 minutes, the plates were transferred to ice trays and medium was rapidly aspirated. The cell layer was washed twice with ice-cold phosphate buffered saline, (PBS), pH 7.4. […] Non-specific glucose uptake was assayed in wells exposed to cytochalasin B, inhibitor of glucose transport. […] Statistical analysis was performed using unpaired t-test.

Mouse PPARγ = target: T1, Mouse PPARγ (Mus musculus, UniProt P37238); assay: Mouse PPARγ assay (TransAM PPARγ ELISA, 3T3-L1 fibroblasts); assay type: cell-based; conditions: test compound 50 μM, 72 hrs
T1 construct: endogenous in cells; host or cells: 3T3-L1 fibroblasts
T1 sequence (P37238 1-505): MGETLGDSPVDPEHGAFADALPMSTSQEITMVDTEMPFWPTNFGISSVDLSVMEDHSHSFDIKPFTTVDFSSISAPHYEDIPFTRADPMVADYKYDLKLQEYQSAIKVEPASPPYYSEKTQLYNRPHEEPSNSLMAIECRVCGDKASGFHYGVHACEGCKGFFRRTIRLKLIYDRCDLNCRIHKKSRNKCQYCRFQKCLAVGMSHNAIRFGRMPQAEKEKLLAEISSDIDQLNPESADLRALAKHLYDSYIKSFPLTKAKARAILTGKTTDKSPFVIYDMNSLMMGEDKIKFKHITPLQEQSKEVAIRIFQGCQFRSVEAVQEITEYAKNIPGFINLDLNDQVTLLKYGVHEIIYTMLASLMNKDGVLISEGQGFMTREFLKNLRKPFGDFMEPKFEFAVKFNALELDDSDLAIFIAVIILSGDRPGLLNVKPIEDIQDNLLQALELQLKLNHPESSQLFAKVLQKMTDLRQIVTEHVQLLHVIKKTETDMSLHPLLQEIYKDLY
Method: The assay was designed as in the reference, Blood, 104(5), 1361-8, 2004, the disclosure of which is incorporated by reference for the teaching of the assay.
3T3-L1 fibroblasts were seeded in 6-well plates at a density of 4×10^4 cells/well and cultured in DMEM containing 10% calf serum. After 4-5 days, when the cells become confluent, each of test compound was added (from a 20 mM stock in DMSO) to the final concentration of 50 μM in DMEM supplemented with 10% FCS. […] The plates were incubated for 72 hrs at 37° C. in a CO2 incubator with fresh medium containing test substances added after first 48 hrs. After 72 hrs, the medium was removed; the cell layer was washed and processed for the PPARγ assay as per the instruction of the manufacturer (Active Motif, North America, California, USA). PPARγ activation was determined using 96-well ELISA assay as per the instruction manual (TransAM PPARγ. Active Motif, Cat 0.40196). Assay Readout was absorbance output from spectrophotometer for the mouse PPARγ assay. Luminescence data output was recorded for the human PPARγ assay.

[2] = tested on: genetically diabetic db/db BL/6J mice; assay: Screening in db/db BL/6J mice: reduction of plasma glucose levels; assay type: in vivo; conditions: 10 days
Method: The protocol was designed as in references. • 1.
The screening of compounds was based on their ability to reduce the plasma glucose levels in genetically diabetic db/db BL/6J mice.
Male db/db mice (obtained from the Animal House of Nicholas Piramal Research Centre, Goregaon, Mumbai, India) were used for this study (body weight in the range of 30-40 g and age is 6-8 weeks) and were kept eight per cage in individually ventilated cages at controlled temperature (22±1° C.) and humidity (45±5%). Food and water were provided ad libitum during their laboratory stay, except for four hours fasting prior to blood sample collection. 12 hours light and dark cycle was followed during the whole study period.
After 4 hours fasting blood samples were collected from mice. Mice showing plasma glucose levels between 300 to 500 mg/dl were divided in groups (8-10 per group) such that the mean plasma glucose levels and variation within the group, for each group, is nearly same. After grouping, mice in respective groups received treatment with 0.5% CMC vehicle, standard compound or test compounds for 10 days.
After 4 hours fasting, mice were anaesthetized using isoflurane (inhalation anesthetic), and blood samples were collected through the retro orbital plexus. Collected blood samples were centrifuged at 7000 rpm for 10 minutes at 4° C.; Separated plasma was used for estimation of plasma glucose using diagnostic kits (Diasys, Germany). Plasma glucose levels of treated groups were normalized with control group using the following formula, which accounted for the changes in control group.
Formula used for normalization was *:{1−[…]}×100.

db/db mice = assay: Evaluation of lipid levels (dyslipidemia) in db/db mice; assay type: in vivo; conditions: oral bid 15 days
Method: The assay was designed as in the reference, Metabolism, 49 (1), 22-31, 2000, the disclosure of which is incorporated by reference for the teaching of the assay. Seven groups of male db/db mice (8 animals per group) were used. […] Body weight was measured daily. On day 15, the animals were deprived of food for 4 hours after the last dose administration. Blood was collected at the end of the 4-hour period using heparinised capillaries by a retro-orbital puncture. Plasma samples were analyzed for glucose, triglyceride, cholesterol, using the autoanalyser.

Human PPARγ = target: T2, Human PPARγ (Homo sapiens, UniProt P37231); assay: Human PPARγ transactivation assay (luciferase reporter, HEK293 cells); assay type: cell-based; conditions: 48 hours
T2 construct: Human full length PPARγ cDNA was cloned into pSG5 expression vector; expressed in transfected cells; host or cells: HEK293 cells
T2 sequence (P37231 1-505): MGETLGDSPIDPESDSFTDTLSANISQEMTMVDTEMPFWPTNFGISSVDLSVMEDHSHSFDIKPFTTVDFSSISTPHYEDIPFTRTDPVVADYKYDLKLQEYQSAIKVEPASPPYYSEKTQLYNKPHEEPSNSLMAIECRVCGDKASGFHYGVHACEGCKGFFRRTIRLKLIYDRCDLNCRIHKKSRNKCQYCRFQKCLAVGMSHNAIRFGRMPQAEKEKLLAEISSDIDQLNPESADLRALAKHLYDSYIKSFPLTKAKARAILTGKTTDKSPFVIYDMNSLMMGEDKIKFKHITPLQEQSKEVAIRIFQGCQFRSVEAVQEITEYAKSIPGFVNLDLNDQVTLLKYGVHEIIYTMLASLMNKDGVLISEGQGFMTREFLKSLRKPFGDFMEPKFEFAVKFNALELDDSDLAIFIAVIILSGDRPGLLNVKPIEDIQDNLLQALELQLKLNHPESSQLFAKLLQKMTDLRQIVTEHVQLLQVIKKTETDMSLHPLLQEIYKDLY
Method: The assay was designed as in the reference, Biochem. Biophys. Res. Comm. 175:865-871, 1991, the disclosure of which is incorporated by reference for the teaching of the assay. Human PPARγ activity was evaluated by transactivation using a luciferase reporter gene. The pBL-TK-luciferase reporter plasmid AOX-3×PPRE-TK-LUC contains three copies of the rat acyl CoA oxidase PPRE cloned upstream of the minimal herpes simplex virus thymidine kinase (TK) promoter. Human full length PPARγ cDNA was cloned into pSG5 expression vector (Stratagene, Lo Jolla, Calif.).
HEK293 cells were seeded in 24 well plates and grown in DMEM supplemented with 10% (v/v) FCS. After 24 hours, they were transfected with 100 ng of hPPARγ receptor and 300 ng of AOX-3×PPRE-LUC reporter construct per well using Fugen 6 transfection reagent (Roche, Indianapolis, Ind.). […] The control was 0.1% DMSO. After 48 hours, transactivation activity was determined by luciferase assay using Steady Glow reagent (Promega, Madison, Wis.).

| Compound | fold induction at 10 µM [1] | % of Rosiglitazone (comparison with Rosiglitazone) [1] | PPARγ activity (% of rosiglitazone) (Mouse PPARγ) | Normalization with control (plasma glucose) ([2]; 50 mpk bid) | PPARγ activity (% of rosiglitazone) (Human PPARγ) | other results |
| --- | --- | --- | --- | --- | --- | --- |
| O=S(=O)(Nc1cnc(Oc2cnc3ccccc3c2)c(Cl)c1)c1ccc(F)cc1F [Example 34, N-(5-Chloro-6-(quinolin-3-yloxy)pyridin-3-yl)-2,4-difluorobenzenesulfonamide] | 1.7 ± 0.08 | 43.59 ± 4.77% | 8.17% | 57.2 ± 19.1 | – | – |
| CN(CCOc1ccc(CC2SC(=O)NC2=O)cc1)c1ccccn1 (centres unmarked) [Rosiglitazone, reference compound] | – | – | – | – | – | Normalization with control (plasma glucose) ([2]; Rosiglitazone 5 mpk bid): 54.52 ± 4.92 and 107.9 ± 15.1 and 83.6 ± 12.8; Normalization with control (plasma glucose) ([2]; Rosiglitazone 10 mpk od): 93.8 ± 22.7 and 55.0 ± 11.4; decrease in plasma triglyceride levels (db/db mice; Rosiglitazone 5 mpk): 40%; reduction in cholesterol levels (db/db mice; Rosiglitazone 5 mpk): 27% |
| O=S(=O)(Nc1cnc(Oc2cc3ccccc3cn2)c(Cl)c1)c1ccc(Cl)cc1Cl [Example 1, 2,4-Dichloro-N-(5-chloro-6-(isoquinolin-3-yloxy)pyridin-3-yl)benzenesulfonamide] | 2.41 ± 0.06 | 78.75 ± 3.55% | 12.4% | – | 23% | Normalization with control (plasma glucose) ([2]; 150 mpk od): 43.2 ± 15.7; lowering lipid levels compared with Rosiglitazone (db/db mice): as efficacious as Rosiglitazone; reduction in cholesterol levels (db/db mice; doses higher than 50 mpk): 26%; melting point: 203 to 205 °C |
| COc1ccc(S(=O)(=O)Nc2cnc(Oc3cnc4ccccc4c3)c(Cl)c2)cc1 [Example 26, N-(5-Chloro-6-(quinolin-3-yloxy)pyridin-3-yl)-4-methoxybenzenesulfonamide] | 2.19 ± 0.09 | 66.48 ± 5.26% | – | – | 19.3% | Normalization with control (plasma glucose) ([2]; 100 mpk bid): 41.90 ± 3.84 |
| COc1ccc(S(=O)(=O)Nc2cnc(Oc3cnc4ccccc4c3)c(Cl)c2)cc1OC [Example 30, N-(5-Chloro-6-(quinolin-3-yloxy)pyridin-3-yl)-3,4-dimethoxybenzenesulfonamide] | 1.84 ± 0.02 | – | 8.18% | 76.2 ± 19.2 | – | – |
